In patent publication US12077503B2, “Substituted cyclic amides and their use as herbicides” (FMC CORPORATION, priority 2015, dated 2024):

Experiments:
Assay type in all cases: in vivo
[1] = system: Kochia (Kochia scoparia); assay: Test A preemergence; details: for Plant response rating, Kochia: 125 g ai/ha, preemergence, 0 to 100 scale (0 no effect, 100 complete control); for Kochia plant response rating (0 to 100 scale, 0 is no effect, 100 is complete control): Preemergence, 500 g ai/ha, visual injury approx. 10 d
In short: (§1)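 Compounds were formulated in a non-phytotoxic solvent mixture with surfactant and applied as a preemergence directed soil spray after seeding, or sprayed postemergence over plants 2 to 10 cm tall at the one- to two-leaf stage. Evaluation after about 10 d compared treated with untreated controls, using a scale from 0 (no effect) to 100 (complete control).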

[2] = system: barnyardgrass (Echinochloa crus-galli); assay: Test A preemergence; details: for Plant response rating, Barnyardgrass: 125 g ai/ha, preemergence, 0 to 100 scale (0 no effect, 100 complete control); for Barnyardgrass plant response rating (0 to 100 scale, 0 is no effect, 100 is complete control): Preemergence, 500 g ai/ha, visual injury approx. 10 d
In short: as §1

[3] = system: giant foxtail (Setaria faberii); assay: Test A preemergence; details: for Plant response rating, Foxtail, Giant: 125 g ai/ha, preemergence, 0 to 100 scale (0 no effect, 100 complete control); for Foxtail, Giant plant response rating (0 to 100 scale, 0 is no effect, 100 is complete control): Preemergence, 500 g ai/ha, visual injury approx. 10 d
In short: as §1

[4] = system: pigweed (Amaranthus retroflexus); assay: Test A preemergence; details: for Plant response rating, Pigweed: 125 g ai/ha, preemergence, 0 to 100 scale (0 no effect, 100 complete control); for Pigweed plant response rating (0 to 100 scale, 0 is no effect, 100 is complete control): Preemergence, 500 g ai/ha, visual injury approx. 10 d
[5] = system: ragweed (common ragweed, Ambrosia elatior); assay: Test A preemergence; details: for Plant response rating, Ragweed: 125 g ai/ha, preemergence, 0 to 100 scale (0 no effect, 100 complete control); for Ragweed plant response rating (0 to 100 scale, 0 is no effect, 100 is complete control): Preemergence, 500 g ai/ha, visual injury approx. 10 d
In short: as §1

[6] = system: ryegrass, Italian (Italian ryegrass, Lolium multiflorum); assay: Test A preemergence; details: for Plant response rating, Ryegrass, Italian: 125 g ai/ha, preemergence, 0 to 100 scale (0 no effect, 100 complete control); for Ryegrass, Italian plant response rating (0 to 100 scale, 0 is no effect, 100 is complete control): Preemergence, 500 g ai/ha, visual injury approx. 10 d
In short: as §1

[7] = system: Galium (catchweed bedstraw, Galium aparine); assay: Test A postemergence; details: postemergence; for Galium plant response rating: 125 g ai/ha, visual injury rating on 0 to 100 scale (0 no effect, 100 complete control), approx. 10 d; for Plant response rating, Galium: 500 g ai/ha, 0 to 100 scale, 0 no effect, 100 complete control
In short: as §1

[8] = system: Kochia (Kochia scoparia); assay: Test A postemergence; details: postemergence; for Kochia plant response rating: 125 g ai/ha, visual injury rating on 0 to 100 scale (0 no effect, 100 complete control), approx. 10 d; for Plant response rating, Kochia: 500 g ai/ha, 0 to 100 scale, 0 no effect, 100 complete control
In short: as §1

[9] = system: barnyardgrass (Echinochloa crus-galli); assay: Test A postemergence; details: postemergence; for Barnyardgrass plant response rating: 125 g ai/ha, visual injury rating on 0 to 100 scale (0 no effect, 100 complete control), approx. 10 d; for Plant response rating, Barnyardgrass: 500 g ai/ha, 0 to 100 scale, 0 no effect, 100 complete control
In short: as §1

[10] = system: blackgrass (Alopecurus myosuroides); assay: Test A postemergence; details: postemergence; for Blackgrass plant response rating: 125 g ai/ha, visual injury rating on 0 to 100 scale (0 no effect, 100 complete control), approx. 10 d; for Plant response rating, Blackgrass: 500 g ai/ha, 0 to 100 scale, 0 no effect, 100 complete control
In short: as §1

[11] = system: corn (Zea mays); assay: Test A postemergence; details: postemergence; for Corn plant response rating: 125 g ai/ha, visual injury rating on 0 to 100 scale (0 no effect, 100 complete control), approx. 10 d; for Plant response rating, Corn: 500 g ai/ha, 0 to 100 scale, 0 no effect, 100 complete control
In short: as §1

[12] = system: giant foxtail (Setaria faberii); assay: Test A postemergence; details: postemergence; for Foxtail, Giant plant response rating: 125 g ai/ha, visual injury rating on 0 to 100 scale (0 no effect, 100 complete control), approx. 10 d; for Plant response rating, Foxtail, Giant: 500 g ai/ha, 0 to 100 scale, 0 no effect, 100 complete control
In short: as §1

[13] = system: pigweed (Amaranthus retroflexus); assay: Test A postemergence; details: postemergence; for Pigweed plant response rating: 125 g ai/ha, visual injury rating on 0 to 100 scale (0 no effect, 100 complete control), approx. 10 d; for Plant response rating, Pigweed: 500 g ai/ha, 0 to 100 scale, 0 no effect, 100 complete control
In short: as §1

[14] = system: ragweed (common ragweed, Ambrosia elatior); assay: Test A postemergence; details: postemergence; for Ragweed plant response rating: 125 g ai/ha, visual injury rating on 0 to 100 scale (0 no effect, 100 complete control), approx. 10 d; for Plant response rating, Ragweed: 500 g ai/ha, 0 to 100 scale, 0 no effect, 100 complete control
In short: as §1

[15] = system: ryegrass, Italian (Italian ryegrass, Lolium multiflorum); assay: Test A postemergence; details: postemergence; for Ryegrass, Italian plant response rating: 125 g ai/ha, visual injury rating on 0 to 100 scale (0 no effect, 100 complete control), approx. 10 d; for Plant response rating, Ryegrass, Italian: 500 g ai/ha, 0 to 100 scale, 0 no effect, 100 complete control
In short: as §1

[16] = system: wheat (Triticum aestivum); assay: Test A postemergence; details: postemergence; for Wheat plant response rating: 125 g ai/ha, visual injury rating on 0 to 100 scale (0 no effect, 100 complete control), approx. 10 d; for Plant response rating, Wheat: 500 g ai/ha, 0 to 100 scale, 0 no effect, 100 complete control
In short: as §1

[17] = system: barnyardgrass (Echinochloa crus-galli); assay: Test B flooded paddy test; details: Flood, 250 g ai/ha; 0 to 100 scale where 0 is no effect and 100 is complete control; 13 to 15 d
In short: (§2)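 Greenhouse paddy pots with 2-leaf stage plants received compound by direct addition to floodwater 3 cm deep, kept at that level. Scored visually at 13–15 d versus controls (0 no effect; 100 complete control).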

[18] = system: ducksalad (Heteranthera limosa); assay: Test B flooded paddy test; details: Flood, 250 g ai/ha; 0 to 100 scale where 0 is no effect and 100 is complete control; 13 to 15 d
In short: as §2

[19] = system: rice (Oryra sativa); assay: Test B flooded paddy test; details: Flood, 250 g ai/ha; 0 to 100 scale where 0 is no effect and 100 is complete control; 13 to 15 d
In short: as §2

[20] = system: sedge, umbrella (small-flower umbrella sedge, Cyperus difformis); assay: Test B flooded paddy test; details: Flood, 250 g ai/ha; 0 to 100 scale where 0 is no effect and 100 is complete control; 13 to 15 d
In short: as §2

[21] = system: soybean (Glycine max); assay: Test C preemergence; details: scale 0 to 100, 0 no effect, 100 complete control
Text: Seeds of plant species selected from blackgrass (Alopecurus myosuroides), ryegrass, Italian (Italian ryegrass, Lolium multiflorum), wheat (winter wheat, Triticum aestivum), Galium (catchweed bedstraw, Galium aparine), corn (Zea mays), crabgrass, large (large crabgrass, Digitaria sanguinalis), foxtail, giant (giant foxtail, Setaria faberii), johnsongrass (Sorghum halepense), lambsquarters (Chenopodium album), morningglory (Ipomoea coccinea), nutsedge, yellow (yellow nutsedge, Cyperus esculentus), pigweed (Amaranthus retroflexus), ragweed (common ragweed, Ambrosia elatior), soybean (Glycine max), barnyardgrass (Echinochloa crus-galli), oilseed rape (Brassica napus), waterhemp (common waterhemp, Amaranthus rudis) and velvetleaf (Abutilon theophrasti) were planted into a blend of loam soil and sand and treated preemergence with test chemicals formulated in a non-phytotoxic solvent mixture which included a surfactant.
At the same time, plants selected from these crop and weed species and also Kochia (Kochia scoparia), oat, wild (wild oat, Avena fatua), and chickweed (common chickweed, Stellaria media) were planted in pots containing Sunshine Redi-Earth® planting medium comprising spaghnum peat moss, vermiculite, starter nutrients and dolomitic limestone and treated with postemergence applications of test chemicals formulated in the same manner. Plants ranged in height from 2 to 18 cm (1- to 4-leaf stage) for postemergence treatments. Treated plants and controls were maintained in a greenhouse for 13 to 15 d, after which time all species were compared to controls and visually evaluated. Plant response ratings, summarized in Table C, are based on a scale of 0 to 100 where 0 is no effect and 100 is complete control. A dash (-) response means no test result.

Structure (SMILES) | Plant response rating, Kochia [1] | Kochia plant response rating (0 to 100 scale, 0 is no effect, 100 is complete control) [1] | Plant response rating, Barnyardgrass [2] | Barnyardgrass plant response rating (0 to 100 scale, 0 is no effect, 100 is complete control) [2] | Plant response rating, Foxtail, Giant [3] | Foxtail, Giant plant response rating (0 to 100 scale, 0 is no effect, 100 is complete control) [3] | Plant response rating, Pigweed [4] | Pigweed plant response rating (0 to 100 scale, 0 is no effect, 100 is complete control) [4] | Plant response rating, Ragweed [5] | Plant response rating, Ryegrass, Italian [6] | Ryegrass, Italian plant response rating (0 to 100 scale, 0 is no effect, 100 is complete control) [6] | Galium plant response rating [7] | Plant response rating, Galium [7] | Kochia plant response rating [8] | Plant response rating, Kochia [8] | Barnyardgrass plant response rating [9] | Plant response rating, Barnyardgrass [9] | Blackgrass plant response rating [10] | Plant response rating, Blackgrass [10] | Corn plant response rating [11] | further results
CN1CC(c2ccc(C(F)(F)F)c(F)c2)C(C(=O)Nc2ccccc2S(C)(=O)=O)C1=O (centres unmarked) [Compound 397] | 70 | 90 | 80 | 90 | 90 | 90 | 90 | 90 | 50 | 30 | 70 | 60 | 60 | 20 | 50 | 70 | 90 | 60 | 70 | 50 | Ragweed plant response rating (0 to 100 scale, 0 is no effect, 100 is complete control) [5]: 70; Plant response rating, Corn [11]: 70; Foxtail, Giant plant response rating [12]: 70; Plant response rating, Foxtail, Giant [12]: 80; Pigweed plant response rating [13]: 40; Plant response rating, Pigweed [13]: 70; Ragweed plant response rating [14]: 0; Plant response rating, Ragweed [14]: 20; Ryegrass, Italian plant response rating [15]: 40; Plant response rating, Ryegrass, Italian [15]: 60; Wheat plant response rating [16]: 40; Plant response rating, Wheat [16]: 50; Plant response rating, Barnyardgrass [17]: 65; Plant response rating, Ducksalad [18]: 75; Plant response rating, Rice [19]: 0; Plant response rating, Sedge, Umbrella [20]: 0; Plant response rating, Soybean ([21]; 62 g ai/ha): 0; Plant response rating, Soybean ([21]; 125 g ai/ha): 0; Plant response rating, Soybean ([21]; 250 g ai/ha): 20
CN1CC(c2ccc(C(F)(F)F)cc2)C(C(=S)Nc2ccccc2F)C1=O (centres unmarked) [Compound 450] | 50 | 80 | 90 | 90 | 90 | 90 | 70 | 80 | 20 | 0 | 40 | 50 | 60 | 20 | 50 | 80 | 90 | 20 | 40 | 20 | Ragweed plant response rating (0 to 100 scale, 0 is no effect, 100 is complete control) [5]: 70; Plant response rating, Corn [11]: 60; Foxtail, Giant plant response rating [12]: 80; Plant response rating, Foxtail, Giant [12]: 80; Pigweed plant response rating [13]: 50; Plant response rating, Pigweed [13]: 60; Ragweed plant response rating [14]: 20; Plant response rating, Ragweed [14]: 30; Ryegrass, Italian plant response rating [15]: 0; Plant response rating, Ryegrass, Italian [15]: 50; Wheat plant response rating [16]: 0; Plant response rating, Wheat [16]: 30; Plant response rating, Barnyardgrass [17]: 45; Plant response rating, Ducksalad [18]: 75; Plant response rating, Rice [19]: 0; Plant response rating, Sedge, Umbrella [20]: 0; Plant response rating, Soybean ([21]; 62 g ai/ha): 5; Plant response rating, Soybean ([21]; 125 g ai/ha): 0; Plant response rating, Soybean ([21]; 250 g ai/ha): 0
Cc1ccc(C2CN(C)C(=O)C2C(=O)Nc2cccc(F)c2F)cc1F (centres unmarked) [Compound 464] | 70 | 80 | 90 | 90 | 90 | 90 | 70 | 70 | 50 | 70 | 90 | 60 | 70 | 50 | 60 | 90 | 90 | 60 | 70 | 90 | Plant response rating, Corn [11]: 90; Foxtail, Giant plant response rating [12]: 90; Plant response rating, Foxtail, Giant [12]: 90; Pigweed plant response rating [13]: 40; Plant response rating, Pigweed [13]: 50; Ragweed plant response rating [14]: 30; Plant response rating, Ragweed [14]: 30; Ryegrass, Italian plant response rating [15]: 70; Plant response rating, Ryegrass, Italian [15]: 80; Wheat plant response rating [16]: 70; Plant response rating, Wheat [16]: 70; Plant response rating, Barnyardgrass [17]: 70; Plant response rating, Ducksalad [18]: 100; Plant response rating, Rice [19]: 20; Plant response rating, Sedge, Umbrella [20]: 0; Plant response rating, Soybean ([21]; 62 g ai/ha): 0; Plant response rating, Soybean ([21]; 125 g ai/ha): 0; Plant response rating, Soybean ([21]; 250 g ai/ha): 0
